Assay results published in patent US8802597B2, “Herbicidal pyrimidines” (E I du Pont de Nemours and Company, priority 2003, dated 2014).

Assays:
Assay in all cases: Test G pre/postemergence
Format in all cases: in vivo
[1] = test system: Italian ryegrass (Lolium multiflorum)
Outline: (§1)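 Greenhouse pre/postemergence screen with surfactant-containing solvent formulation; postemergence plants were 1- to 4-leaf stage. Percent control (0–100) was judged by eye against controls after 12–21 days.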

[2] = test system: Surinam grass (Brachiaria decumbens)
Outline: as §1

[3] = test system: bermudagrass (Cynodon dactylon)
Outline: as §1

[4] = test system: black mustard (Brassica nigra)
Outline: as §1

[5] = test system: common chickweed (Stellaria media)
Outline: as §1

[6] = test system: common mallow (Malva sylvestris)
Outline: as §1

[7] = test system: common ragweed (Ambrosia elatior)
Outline: as §1

[8] = test system: downy bromegrass (Bromus tectorum)
Outline: as §1

[9] = test system: goosegrass (Eleusine indica)
Outline: as §1

[10] = test system: guineagrass (Panicum maximum)
Outline: as §1

[11] = test system: johnsongrass (Sorghum halepense)
Outline: as §1

[12] = test system: prickly sida (Sida spinosa)
Outline: as §1

[13] = test system: quackgrass (Elytrigia repens)
Outline: as §1

[14] = test system: tropical spiderwort (Commelina benghalensis)
Outline: as §1

[15] = Postemergence, 250 g ai/ha, scale 0 to 100
[16] = Postemergence, 16 g ai/ha, scale 0 to 100
[17] = Postemergence, 31 g ai/ha, scale 0 to 100
[18] = Postemergence, 62 g ai/ha, scale 0 to 100
[19] = Postemergence, 125 g ai/ha, scale 0 to 100
[20] = Preemergence, 16 g ai/ha, scale 0-100
[21] = Preemergence, 31 g ai/ha, scale 0-100
[22] = Preemergence, 62 g ai/ha, scale 0-100
[23] = Preemergence, 125 g ai/ha, scale 0-100
[24] = Preemergence, 250 g ai/ha, scale 0-100

Nc1nc(C2CC2)nc(C(=O)[O-])c1Cl.[Na+] [Compound 77, 6-amino-5-chloro-2-cyclopropyl-4-pyrimidinecarboxylic acid monosodium salt]
Plant response rating, Ryegrass, Italian [1, 15]: 40
Plant response rating, Ryegrass, Italian [1, 16]: 0
Plant response rating, Ryegrass, Italian [1, 17]: 20
Plant response rating, Ryegrass, Italian [1, 18]: 30
Plant response rating, Ryegrass, Italian [1, 19]: 30
Plant response rating, Ryegrass, Italian [1, 20]: 0
Plant response rating, Ryegrass, Italian [1, 21]: 0
Plant response rating, Ryegrass, Italian [1, 22]: 0
Plant response rating, Ryegrass, Italian [1, 23]: 40
Plant response rating, Ryegrass, Italian [1, 24]: 75
Plant response rating, Surinam Grass [2, 15]: 70
Plant response rating, Surinam Grass [2, 16]: 0
Plant response rating, Surinam Grass [2, 17]: 10
Plant response rating, Surinam Grass [2, 18]: 25
Plant response rating, Surinam Grass [2, 19]: 65
Plant response rating, Surinam Grass [2, 20]: 0
Plant response rating, Surinam Grass [2, 21]: 5
Plant response rating, Surinam Grass [2, 22]: 70
Plant response rating, Surinam Grass [2, 23]: 90
Plant response rating, Surinam Grass [2, 24]: 100
Plant response rating, Bermudagrass [3, 15]: 50
Plant response rating, Bermudagrass [3, 16]: 10
Plant response rating, Bermudagrass [3, 17]: 20
Plant response rating, Bermudagrass [3, 18]: 35
Plant response rating, Bermudagrass [3, 19]: 35
Plant response rating, Bermudagrass [3, 20]: 0
Plant response rating, Bermudagrass [3, 21]: 0
Plant response rating, Bermudagrass [3, 22]: 0
Plant response rating, Bermudagrass [3, 23]: 10
Plant response rating, Bermudagrass [3, 24]: 60
Plant response rating, Black Mustard [4, 15]: 60
Plant response rating, Black Mustard [4, 16]: 25
Plant response rating, Black Mustard [4, 17]: 40
Plant response rating, Black Mustard [4, 18]: 50
Plant response rating, Black Mustard [4, 19]: 60
Plant response rating, Black Mustard [4, 20]: 60
Plant response rating, Black Mustard [4, 21]: 60
Plant response rating, Black Mustard [4, 22]: 85
Plant response rating, Black Mustard [4, 23]: 90
Plant response rating, Black Mustard [4, 24]: 95
Plant response rating, Chickweed [5, 15]: 100
Plant response rating, Chickweed [5, 16]: 10
Plant response rating, Chickweed [5, 17]: 80
Plant response rating, Chickweed [5, 18]: 90
Plant response rating, Chickweed [5, 19]: 90
Plant response rating, Chickweed [5, 21]: 70
Plant response rating, Chickweed [5, 22]: 90
Plant response rating, Chickweed [5, 23]: 100
Plant response rating, Chickweed [5, 24]: 100
Plant response rating, Mallow [6, 15]: 95
Plant response rating, Mallow [6, 16]: 65
Plant response rating, Mallow [6, 17]: 75
Plant response rating, Mallow [6, 18]: 80
Plant response rating, Mallow [6, 19]: 85
Plant response rating, Mallow [6, 20]: 30
Plant response rating, Mallow [6, 21]: 40
Plant response rating, Mallow [6, 22]: 50
Plant response rating, Mallow [6, 23]: 80
Plant response rating, Mallow [6, 24]: 80
Plant response rating, Ragweed [7, 15]: 100
Plant response rating, Ragweed [7, 16]: 75
Plant response rating, Ragweed [7, 17]: 75
Plant response rating, Ragweed [7, 18]: 95
Plant response rating, Ragweed [7, 19]: 98
Plant response rating, Ragweed [7, 20]: 80
Plant response rating, Ragweed [7, 21]: 95
Plant response rating, Ragweed [7, 22]: 100
Plant response rating, Ragweed [7, 23]: 100
Plant response rating, Ragweed [7, 24]: 100
Plant response rating, Bromegrass, Downy [8, 15]: 75
Plant response rating, Bromegrass, Downy [8, 16]: 0
Plant response rating, Bromegrass, Downy [8, 17]: 20
Plant response rating, Bromegrass, Downy [8, 18]: 35
Plant response rating, Bromegrass, Downy [8, 19]: 65
Plant response rating, Bromegrass, Downy [8, 20]: 0
Plant response rating, Bromegrass, Downy [8, 21]: 0
Plant response rating, Bromegrass, Downy [8, 22]: 0
Plant response rating, Bromegrass, Downy [8, 23]: 10
Plant response rating, Bromegrass, Downy [8, 24]: 75
Plant response rating, Goosegrass [9, 15]: 65
Plant response rating, Goosegrass [9, 16]: 0
Plant response rating, Goosegrass [9, 17]: 15
Plant response rating, Goosegrass [9, 18]: 50
Plant response rating, Goosegrass [9, 19]: 50
Plant response rating, Goosegrass [9, 20]: 0
Plant response rating, Goosegrass [9, 21]: 5
Plant response rating, Goosegrass [9, 22]: 5
Plant response rating, Goosegrass [9, 23]: 25
Plant response rating, Goosegrass [9, 24]: 55
Plant response rating, Guineagrass [10, 15]: 75
Plant response rating, Guineagrass [10, 16]: 0
Plant response rating, Guineagrass [10, 17]: 0
Plant response rating, Guineagrass [10, 18]: 65
Plant response rating, Guineagrass [10, 19]: 65
Plant response rating, Guineagrass [10, 20]: 30
Plant response rating, Guineagrass [10, 21]: 70
Plant response rating, Guineagrass [10, 22]: 85
Plant response rating, Guineagrass [10, 23]: 85
Plant response rating, Guineagrass [10, 24]: 95
Plant response rating, Johnsongrass [11, 15]: 85
Plant response rating, Johnsongrass [11, 16]: 20
Plant response rating, Johnsongrass [11, 17]: 65
Plant response rating, Johnsongrass [11, 18]: 70
Plant response rating, Johnsongrass [11, 19]: 85
Plant response rating, Johnsongrass [11, 20]: 10
Plant response rating, Johnsongrass [11, 21]: 65
Plant response rating, Johnsongrass [11, 22]: 75
Plant response rating, Johnsongrass [11, 23]: 85
Plant response rating, Johnsongrass [11, 24]: 95
Plant response rating, Prickly Sida [12, 15]: 80
Plant response rating, Prickly Sida [12, 16]: 70
Plant response rating, Prickly Sida [12, 17]: 75
Plant response rating, Prickly Sida [12, 18]: 80
Plant response rating, Prickly Sida [12, 19]: 80
Plant response rating, Prickly Sida [12, 20]: 70
Plant response rating, Prickly Sida [12, 21]: 75
Plant response rating, Prickly Sida [12, 22]: 85
Plant response rating, Prickly Sida [12, 23]: 90
Plant response rating, Prickly Sida [12, 24]: 95
Plant response rating, Quackgrass [13, 15]: 60
Plant response rating, Quackgrass [13, 16]: 0
Plant response rating, Quackgrass [13, 17]: 10
Plant response rating, Quackgrass [13, 18]: 40
Plant response rating, Quackgrass [13, 19]: 60
Plant response rating, Quackgrass [13, 20]: 0
Plant response rating, Quackgrass [13, 21]: 0
Plant response rating, Quackgrass [13, 22]: 10
Plant response rating, Quackgrass [13, 23]: 50
Plant response rating, Quackgrass [13, 24]: 80
Plant response rating, Spiderwort [14, 15]: 100
Plant response rating, Spiderwort [14, 16]: 10
Plant response rating, Spiderwort [14, 17]: 50
Plant response rating, Spiderwort [14, 18]: 75
Plant response rating, Spiderwort [14, 19]: 90
Plant response rating, Spiderwort [14, 20]: 60
Plant response rating, Spiderwort [14, 21]: 85
Plant response rating, Spiderwort [14, 22]: 95
Plant response rating, Spiderwort [14, 23]: 95
Plant response rating, Spiderwort [14, 24]: 100
